This note sets out measurements from PubChem BioAssay AID743275 (Broad Institute, 2014).

As a reminder, the AC50 is the concentration at which the activity in the assay is half-maximal.

Inconclusive results are not listed. Active and inactive are the calls of the source.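 How the source made its calls: active means compounds cutting cell count with a fitted half-maximal dose below twice the top dose, in every run; inconclusive means runs disagree, flat partial cut, or poor curve fit; inactive means every run called inactive.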

The subject of one assay is CAPAN-1 cell number, Hoechst imaging, 14 days. Description: CAPAN-1 proliferation reduction by RAD52 inhibitors – cell-based, imaging, dry powder, set 2, dose response (AID 743275).
Conditions: not given
Regarding `Cn1nc(-c2ccc(Cl)cc2)c2cc(C(=O)NCCCN3CCCC3)sc21`, the AC50 is 15.8 µM.

In the case of `CCN(CC)CCN(C(=O)C1=COCCO1)c1nc2c(OC)ccc(OC)c2s1`, the half-maximal activity concentration (AC50) is 48.6 µM.

As for `Cc1ccc(-c2nc(C(=O)NCCCN3CCOCC3)cc3c2[nH]c2ccccc23)cc1`, the half-maximal activity concentration (AC50) is 30.8 µM.

`CCN1CCN(c2cc(C)c3cc(NC(=O)c4ccccn4)ccc3n2)CC1`: the concentration at half-maximal activity (AC50) is 40.8 µM.

As for `c1ccc(CNc2nc(NCc3ccccc3)c3ccccc3n2)cc1`, the half-maximal activity concentration (AC50) was 7.8 µM.

For the compound `Cc1ccc2nc(-c3ccc(NC(=S)NC4CC(C)(C)NC(C)(C)C4)cc3)sc2c1`, the concentration at half-maximal activity (AC50) was 23.6 µM.

With `CCCNc1nc(NCc2cccnc2)nc(N2CCOCC2)n1`, the AC50 was 26.5 µM.

For the compound `Cc1ccc2sc(N(CCCN(C)C)C(=O)c3ccc(S(=O)(=O)N(C)Cc4ccccc4)cc3)nc2c1C`, the AC50 was 20.4 µM.

On to `CCCCN(CC)CCCNC(=S)Nc1ccc2nc(N3CCN(C)CC3)cc(C)c2c1`, for which the AC50 is 44.9 µM.

Regarding `CN(C)CCCNC(=S)NCC(c1ccc(Cl)cc1Cl)c1c[nH]c2ccccc12` (stereo not given), the concentration at half-maximal activity (AC50) was 17.7 µM.

Take `COc1ccc(OC)c(Nc2nc(NCCO)c3ccccc3n2)c1`: the AC50 is 30.2 µM.

As to `CCN(CC)CCNC(=S)Nc1ccc2nc(N3CCN(CC)CC3)cc(C)c2c1`, the concentration at half-maximal activity (AC50) was 31.9 µM.

For the compound `CN1CCN(CCCNC(=O)c2cc3c(-c4ccc(Cl)cc4)nn(C)c3s2)CC1`, the AC50 was 7.4 µM.

For `CC1(C)CC(NC(=O)c2ccc(Cl)c(S(=O)(=O)N(Cc3ccccc3)c3ccccc3)c2)CC(C)(C)N1`, the half-maximal activity concentration (AC50) is 22.1 µM.

Turning to `C=C1Nc2cc(-c3ccc(Cl)cc3)nn2C(NCCN(C)C)=C1C`, the AC50 was 31.6 µM.

In the case of `OCCNc1nc(Nc2ccccc2Cl)nc2ccccc12`, the AC50 was 23.9 µM.

On to `Cc1c(C(=O)Nc2ccc(S(=O)(=O)N(C)C3CCN(C)CC3)cc2)oc2c(Cl)cccc12`, for which the concentration at half-maximal activity (AC50) was 24.1 µM.

As to `Cc1ccc2sc(N(CCCN(C)C)C(=O)c3ccc(S(=O)(=O)N(C)C4CCCCC4)cc3)nc2c1C`, the AC50 is 34.7 µM.

As to `Cn1nc(-c2ccc(Cl)cc2)c2cc(C(=O)NCCCN3CCCCCC3)sc21`, the AC50 is 23.9 µM.

For the compound `COc1ccc(OC)c(Nc2nc(NCCCO)c3ccccc3n2)c1`, the AC50 was 24.6 µM.

On to `COc1ccc2oc(C(=O)c3ccccc3)c(NC(=O)CN3CCN(C)CC3)c2c1`, for which the half-maximal activity concentration (AC50) was 38.3 µM.

As to `CCN1CCN(C(=S)Nc2ccc3nc(N4CCN(C)CC4)cc(C)c3c2)CC1`, the half-maximal activity concentration (AC50) is 26.7 µM.

As to `CN(C)CCCN(C(=O)c1ccc(C(=O)c2ccccc2)cc1)c1nc2cc3c(cc2s1)OCO3`, the AC50 is 30 µM.

Turning to `Cc1cc(C)c2sc(N(CCCN(C)C)C(=O)CN3C(=O)c4ccccc4C3=O)nc2c1`, the AC50 is 26 µM.

Turning to `COc1ccc(C2NCCc3c2[nH]c2ccccc32)cc1COc1ccc(F)cc1` (stereo not given), the AC50 is 15.2 µM.

For the compound `COc1cc2ccccc2cc1C(=O)N(CCN(C)C)c1nc2c(OC)ccc(OC)c2s1`, the AC50 was 33.3 µM.

Consider `CCCCN(CC)CCNC(=O)c1cc2c(-c3ccc(Cl)cc3)nn(C)c2s1`, for which the AC50 was 12.6 µM.

Tested on in the next assay: not listed separately
The description is as above. To be noted: CAPAN-1 cell number, Hoechst imaging, 14 days; at 26 µM (top of the series).
For `COc1ccc2nc(NCCNC(=S)NCCCN3CCOCC3)c(C#N)cc2c1`, the activity change, negative = inhibition is -10.2% (inactive).

On to `Cc1cc(N2CCN(C)CC2)nc2ccc(NC(=S)N3CCN(c4ccc(Cl)cc4)CC3)cc12`, for which the activity change, negative = inhibition is 16.1% (inactive).

Staying with this assay, now noted: CAPAN-1 cell number, Hoechst imaging, 14 days; at 50 µM (top of the series).
As for `O=c1c2c(-c3ccccc3)csc2nc2c3ccccc3c(NCCN3CCOCC3)nn12`, the activity change, negative = inhibition is -2.92% (inactive).

Regarding `OCCNc1nc(Nc2ccccc2F)nc2ccccc12`, the activity change, negative = inhibition was 25.7% (inactive).

Turning to `CN(CCCN1CCOCC1)c1cc(-c2ccc(F)cc2)nc2ccnn12`, the activity change, negative = inhibition is -17.6% (inactive).

For the compound `COc1nc(NCc2ccccc2)nc(NCc2cccnc2)n1`, the activity change, negative = inhibition is -3.86% (inactive).

On to `c1ccc(-c2cc(N3CCC(N4CCCC4)CC3)n3nccc3n2)cc1`, for which the activity change, negative = inhibition is 15.5% (inactive).

For the compound `CCNC(=O)Nc1ccc2nc(N3CCN(C)CC3)cc(C)c2c1`, the activity change, negative = inhibition was 20.3% (inactive).

With `Cc1ccc(C(=O)c2oc3ccccc3c2NC(=O)CN2CCN(C)CC2)cc1`, the activity change, negative = inhibition was 9.01% (inactive).

For the compound `Cc1cc(N2CCN(C)CC2)nc2ccc(NC(=S)NCCCN3CCN(C)CC3)cc12`, the activity change, negative = inhibition is 14.2% (inactive).

For the compound `CN(C)c1ccc(Nc2nc(N)c3ccccc3n2)cc1`, the activity change, negative = inhibition is -26.6% (inactive).

Turning to `CCCN1CCN(CCCNC(=S)Nc2ccc3nc(N4CCN(CC)CC4)cc(C)c3c2)CC1`, the activity change, negative = inhibition is 0.584% (inactive).

On to `CCCNc1nc(Cl)nc(NCc2cccnc2)n1`, for which the activity change, negative = inhibition was 4.33% (inactive).

As for `Cc1nccn1Cc1ccc(NC(=O)c2cccc(NC(=O)c3cccnc3)c2)cc1`, the activity change, negative = inhibition was 12.8% (inactive).

As for `CCCN(CCC)CCCNC(=S)Nc1ccc2nc(N3CCN(CC)CC3)cc(C)c2c1`, the activity change, negative = inhibition was -17.4% (inactive).

With `Cc1cc(C)c2c(c1)c1nnc(SCCN3CCCCC3)nc1n2C`, the activity change, negative = inhibition is 6.3% (inactive).

In the case of `COc1ccc(-c2oc3ncnc(NCCCN4CCOCC4)c3c2-c2ccc(OC)cc2)cc1`, the activity change, negative = inhibition is 20.8% (inactive).

For `COc1ccc(-c2nn(C)c3sc(C(=O)NCCCN4CCOCC4)cc23)cc1OC`, the activity change, negative = inhibition was -37% (inactive).

Regarding `CN1CCN(CC(=O)Nc2c(C(=O)c3ccccc3)oc3ccccc23)CC1`, the activity change, negative = inhibition is -11.9% (inactive).

`CN1CCCN(c2cc(-c3ccccc3)nc3ccnn23)CC1`: the activity change, negative = inhibition is -7.07% (inactive).

As for `CCN(CC)CCNc1nc(SC)nc2sc3c(c12)CCN(C)C3`, the activity change, negative = inhibition is 7.64% (inactive).

For `COc1ccccc1Nc1nc(NCCO)c2ccccc2n1`, the activity change, negative = inhibition was -17.4% (inactive).

Take `CN(C)CCCN(C(=O)c1nc2ccccc2s1)c1nc2ccc(F)cc2s1`: the activity change, negative = inhibition is -18.3% (inactive).

`Cc1cc(N2CCN(C)CC2)nc2ccc(NC(=S)NCCCN3CCc4ccccc4C3)cc12`: the activity change, negative = inhibition was 5.99% (inactive).

With `CN1CCN(c2ccc(NC(=O)c3cc(S(N)(=O)=O)ccc3N3CCOCC3)cc2)CC1`, the activity change, negative = inhibition was 4.65% (inactive).

As to `c1ccc(-c2cc(N3CCN(CCN4CCCC4)CC3)n3nccc3n2)cc1`, the activity change, negative = inhibition is -9.44% (inactive).

As for `CN(C)CCCNC(=S)N(CCN(C)C)Cc1cc2cc3c(cc2[nH]c1=O)OCCO3`, the activity change, negative = inhibition was -7.72% (inactive).

`CCN(CC)CCCN(Cc1cc2cc3c(cc2[nH]c1=O)OCO3)C(=S)NCCCN(C)C`: the activity change, negative = inhibition was 15% (inactive).
